From article PMC10518255, “A first-in-class pan-lysyl oxidase inhibitor impairs stromal remodeling and enhances gemcitabine response and survival in pancreatic cancer” (Nature Cancer, 2023)
Values joined by “and” are separate entries in the source; they are usually repeats but may differ in a detail not shown here. Equal entries are not always repeated.

Assays:
Plasma protein binding = format: in vitro ADME; settings: In vitro (human), read-out: Plasma protein binding, % bound (converted)
Recombinant SSAO/VAP1 = Recombinant SSAO/VAP1 (Homo sapiens, UniProt Q16853); test: IC50 determination against other human amine oxidases; format: biochemical
Source text: (§1) Data are presented as mean ± s.d. […] Data presented as mean ± s.d. […] Source data TEXT PRINTED IN THE PICTURE: (b) PXS-5505: Recombinant DAO IC50 (nM): >30,000; Recombinant SSAO/VAP1 IC50 (nM): >30,000; Recombinant MAO-A IC50 (nM): >30,000; Recombinant MAO-B IC50 (nM): >30,000 | (f) PXS-5505: Fibroblast LOX IC50 (nM): 4,930; Recombinant LOXL-1 IC50 (nM): 1,590; Recombinant LOXL-2 IC50 (nM): 570; Recombinant LOXL-3 IC50 (nM): 1,800; Recombinant LOXL-4 IC50 (nM): 190

Recombinant MAO-B = Recombinant MAO-B (Homo sapiens, UniProt P27338); test: as above; format: biochemical
Source text: as §1

Recombinant MAO-A = Recombinant MAO-A (Homo sapiens, UniProt P21397); test: as above; format: biochemical
Source text: as §1

F4/80 = test: Immunohistochemistry of end-point KPC tumors: macrophage infiltration; format: in vivo, mouse; settings: KPC tumours at endpoint; individual replicate values (Extended Data 6G)
Method: All tissues or matrices, including patient TMAs, were fixed in 10% buffered formalin and embedded in paraffin. The 4-μm sections of samples were deparaffinized with xylene and rehydrated in graded ethanol washes. For immunohistochemistry, Bond Dewax Solution (AR9222) was used. Antigen retrieval was performed using Bond RX H2(30) protocol: HIER 30 min ER1 (citrate pH 6) OR ER2 (EDTA pH 9) at 100 °C. Slides were quenched in BOND Polymer Refine Detection (Leica Biosystems DS9800). […] Slides were digitized on an Aperio slide scanner and representative areas per tumor acquired and analyzed by researchers blinded to the conditions of the experiment.
Extended Data Fig. 6 PXS-5505 in combination with gemcitabine in a KPC model. a. Quantification of proliferating cells (Ki67 positive nuclear staining) in KPC tumors at end point, treated as indicated. 5 fields of view (500 μm × 500 μm) per mouse and 10 mice per cohort were scored. […] Quantification of percent coverage of αSMA positive staining in KPC tumors at end point, treated as indicated. 3 fields of view (1000 μm × 1000 μm) per mouse and 10 mice per cohort were scored. […] Quantification of percent coverage of PDGFR-ß positive staining in KPC tumors at end point, treated as indicated. 3 fields of view (1000 μm × 1000 μm) per mouse and 10 mice per cohort were scored. […] 3 fields of view (500 μm × 500 μm) per mouse and 10 mice per cohort were scored. […]

Sequence of Recombinant MAO-A (P21397 whole entry): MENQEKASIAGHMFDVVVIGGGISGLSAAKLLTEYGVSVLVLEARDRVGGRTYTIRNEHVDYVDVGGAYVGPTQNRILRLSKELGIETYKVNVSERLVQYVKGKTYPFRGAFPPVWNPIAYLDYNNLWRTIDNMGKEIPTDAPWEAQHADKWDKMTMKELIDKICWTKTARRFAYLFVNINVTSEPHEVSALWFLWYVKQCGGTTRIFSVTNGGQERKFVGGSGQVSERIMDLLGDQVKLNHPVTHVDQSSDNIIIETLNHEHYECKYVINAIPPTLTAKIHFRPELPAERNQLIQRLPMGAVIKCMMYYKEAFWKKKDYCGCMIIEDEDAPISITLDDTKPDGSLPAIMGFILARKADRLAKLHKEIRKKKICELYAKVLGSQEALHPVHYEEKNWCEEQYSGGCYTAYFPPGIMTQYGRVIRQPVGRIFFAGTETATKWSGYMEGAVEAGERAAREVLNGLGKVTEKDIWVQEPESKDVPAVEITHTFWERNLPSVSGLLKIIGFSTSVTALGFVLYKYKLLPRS
Sequence of Recombinant MAO-B (P27338 whole entry): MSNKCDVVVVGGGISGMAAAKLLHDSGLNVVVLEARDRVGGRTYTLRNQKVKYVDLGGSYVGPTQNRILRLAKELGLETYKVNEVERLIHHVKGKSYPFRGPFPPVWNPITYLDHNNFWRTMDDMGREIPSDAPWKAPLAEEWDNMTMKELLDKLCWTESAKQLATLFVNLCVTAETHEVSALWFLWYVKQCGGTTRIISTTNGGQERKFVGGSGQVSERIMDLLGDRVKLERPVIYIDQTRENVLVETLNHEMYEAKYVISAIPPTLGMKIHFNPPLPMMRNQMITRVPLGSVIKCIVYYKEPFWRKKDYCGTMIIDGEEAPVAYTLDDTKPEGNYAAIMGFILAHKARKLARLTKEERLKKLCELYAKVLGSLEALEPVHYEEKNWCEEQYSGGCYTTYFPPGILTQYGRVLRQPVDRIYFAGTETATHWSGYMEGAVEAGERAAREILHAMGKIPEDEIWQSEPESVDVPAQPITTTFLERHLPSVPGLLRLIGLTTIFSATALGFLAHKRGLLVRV
Sequence of Recombinant SSAO/VAP1 (Q16853 whole entry): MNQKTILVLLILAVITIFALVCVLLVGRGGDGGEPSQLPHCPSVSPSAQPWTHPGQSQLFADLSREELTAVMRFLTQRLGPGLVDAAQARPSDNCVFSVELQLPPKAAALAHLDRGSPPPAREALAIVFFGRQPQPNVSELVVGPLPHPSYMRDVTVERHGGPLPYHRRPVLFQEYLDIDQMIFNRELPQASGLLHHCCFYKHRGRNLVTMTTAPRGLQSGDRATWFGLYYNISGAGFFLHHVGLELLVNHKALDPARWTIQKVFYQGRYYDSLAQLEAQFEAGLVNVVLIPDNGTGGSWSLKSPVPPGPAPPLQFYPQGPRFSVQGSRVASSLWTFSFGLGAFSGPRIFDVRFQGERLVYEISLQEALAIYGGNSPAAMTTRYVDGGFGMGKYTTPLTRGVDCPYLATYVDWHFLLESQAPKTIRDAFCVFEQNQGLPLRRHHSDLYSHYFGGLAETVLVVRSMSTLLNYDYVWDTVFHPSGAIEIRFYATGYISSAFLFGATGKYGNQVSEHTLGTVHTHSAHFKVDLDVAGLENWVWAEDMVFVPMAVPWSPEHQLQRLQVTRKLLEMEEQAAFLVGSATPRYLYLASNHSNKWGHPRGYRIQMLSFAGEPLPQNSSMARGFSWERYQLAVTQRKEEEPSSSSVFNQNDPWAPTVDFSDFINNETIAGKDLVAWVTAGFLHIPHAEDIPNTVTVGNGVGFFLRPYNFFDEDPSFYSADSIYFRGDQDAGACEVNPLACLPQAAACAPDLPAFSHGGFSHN

Molecule `Cl.Cl.NC/C=C(\F)CS(=O)(=O)c1cccc2cccnc12.O` [PXS-5505, (Z)-3-fluoro-4-(quinolin-8-ylsulfonyl)but-2-en-1-amine dihydrochloride monohydrate] has a fraction unbound (Plasma protein binding) of 0.78, an IC50 (Recombinant SSAO/VAP1) greater than 30 µM and an IC50 (Recombinant MAO-B) greater than 30 µM. The IC50 (Recombinant MAO-A) was greater than 30 µM and the “macrophage infiltration (F4/80 positive staining)” value (F4/80) was 5 and 7.
